Experimental data as given in patent US20120070451A1, “METHODS AND COMPOSITIONS FOR MODULATING CARDIAC CONTRACTILITY” (Consiglio Nazionale Delle Ricerche, priority 2009, published 2012).
Blank lines part the entries; values can stand above or below the compound they belong to. Residues, ends and D or L forms follow the SMILES beside them. *: point of attachment. Cbz = O=C(OCc1ccccc1)*

What was measured:
[1] = test system: Cavα1; test: Western blot of YFP-Cavα1 in transfected COS-7 cells treated with Akt inhibitor and degradation-system inhibitors; assay type: cell-based
Description: FIG. 3. Akt mediates regulation of Cavα1 protein density at the plasma membrane. (A) RT-PCR analysis of Cavα1 mRNA expression from WT and KO ventricular extracts. GADPH serves as loading control. (B) Western blot analysis of whole lysate, membrane, and microsomal fractions from WT and KO ventricular extracts. (C) YFP-Cavα1 transfected COS-7 cells alone or in combination with Cavβ2-expression vector were serum-starved and treated with Akt inhibitor and 1 μM bafilomycin-A1, 25 μM MG132, or 25 μM calpeptin. 6 h post drug administration, cell lysates were prepared and subjected to Western blot analysis for YFP. GAPDH served as a loading control. (D-E) Cavα1 protein levels in KO cardiomyocytes infected with empty (mock) or active E40K-Akt (AdAkt) expressing adenoviral vector (D) and in whole lysates of WT and E40K-Akt (Tg Akt) hearts (E). Representative experiments are shown (n=4).
However, since the amount of Cavα1 was reduced in both microsomal and membrane fractions from KO extracts compared to WT (FIG. 3B), we hypothesized that the reduced Cavα1 level observed in KO mice was due to enhanced protein degradation in addition to impaired protein translocation to the plasma membrane. To assess the pathway involved in the Akt-dependent Cavα1 protein degradation, three sets of specific cell degradation system inhibitors were examined for their ability to prevent the decrease in Cavα1 protein elicited by Akt inhibition. […] Similar results were obtained by inhibiting calpain, the intracellular, Ca^2+-dependent cysteine protease known to be involved in membrane protein degradation (Belles et al., 1988; Romanin et al., 1991).
Cell transfection was performed in serum-starved medium using LipoFectamine2000 (Invitrogen) according to the manufacturer's instructions. 5 μM Akt-XI inhibitor (Calbiochem), insulin (Sigma), 1 μM bafilomycin-A 1 (Sigma), 25 μM MG132 (Calbiochem), and 25 μM Calpeptin (Calbiochem) were used as described. […]
Proteins expression was evaluated in total lysates or cell fractions by Western blot analysis according to standard procedures. […]

[2] = test system: Cavα1 C-terminal domain; test: GST pull-down in vitro binding assay; conditions: for Interaction with Cavα1 C-terminal domain: 35S-methionine-labeled C-Cavα1 (aa 1477-2169)
Excerpt: FIG. 7. Rapid-protein-degradation PEST sequences determine Cavα1 protein instability. (A) Schematic representation of Cavα1 mapping the α1-interacting domain (AID) and PEST sequences in the I-II and II-III cytosolic loops. Deleted PEST sequences (P, H) are highlighted in red. (B) Western blot and immunofluorescence analyses showing relative levels of WT and PEST deleted mutants of YFP-Cavα1 (n=3). Bar represents 5 μm. (C) Wild-type Cavα1 subunit (alone or cotransfected with Cavβ2SE) and its in-frame ΔPEST mutants (Cavα1-ΔP and Cavα1-ΔH) half-lives were determined in COST cells. After overnight starvation, transfected cells were pulse-chased and analyzed along a time course (*P<0.001 compared to Cavα1, ANOVA; n=3). (D) Western blot and immunofluorescence analyses showing relative levels of WT GFP and N-terminal fusion PEST mutants (n=3). Bar represents 20 μm. (E) The Cavα1 C-terminus interacts with the Akt-phosphorylated-GST-Cavβ2 coiled coil region. Bacterially expressed GST or GST-C-Cavβ2 (Cavβ2: aa 480-655) fusion protein and glutathione sepharose beads were incubated with equal amounts of in vitro translated [^35S] methionine-labeled C-Cavα1 (Cavα1: aa 1477-2169). […] Bound proteins were resolved by SDS-PAGE (4-12%). 10% of the input protein in each binding reaction is shown. Coomassie staining of SDS-PAGE is shown in the bottom panel. (F) Ca^2+ currents recorded in tsA-201 cells cotransfected with Cavβ2-WT and either Cavα1-WT or Cavα1-ΔH and cultivated for 36 h in the presence or absence of fetal bovine serum (10%). Current densities (pA/pF) are normalized to the control condition. n>35 at each condition, (*P<0.05 compared to Cavα1, ANOVA). […]
Affinity-purified GST-fusion proteins were generated using a pGEX system (Amersham) and phosphorylated as described below. […] Bound proteins were eluted in SDS sample buffer, subjected to SDS-PAGE, and detected by autoradiography. […]

[3] = test system: Cavα1 currents; test: Whole-cell patch clamp Ca2+ current (ICa,L) in cotransfected tsA-201 cells with or without serum; assay type: cell-based; conditions: cotransfection with Cavα1; 36 h
Description: FIG. 6. Akt phosphorylation of Cavβ2 preserves Cavα1 currents. Ca^2+ currents recorded in cotransfected tsA-201 cells with YFP-Cavα1 and either Cavβ2-WT, Cavβ2-SE, or Cavβ2-SA mutant, cultivated for 36 h in the presence or absence of fetal bovine serum (10%). Currents were recorded 1-2 minutes after the whole-cell configuration was achieved (i.e. after stabilization of the current) and were elicited by a 0 mV depolarization of 200 ms duration applied from a holding potential of −80 mV. Currents are normalized to cell capacitance (Current density, pA/pF). Representative current traces are shown. n>35 at each condition, (*P<0.05 compared to YFP-Cavα1, ANOVA).
FIG. 7. […] (C) Wild-type Cavα1 subunit (alone or cotransfected with Cavβ2SE) and its in-frame ΔPEST mutants (Cavα1-ΔP and Cavα1-ΔH) half-lives were determined in COST cells. After overnight starvation, transfected cells were pulse-chased and analyzed along a time course (*P<0.001 compared to Cavα1, ANOVA; n=3). […] (F) Ca^2+ currents recorded in tsA-201 cells cotransfected with Cavβ2-WT and either Cavα1-WT or Cavα1-ΔH and cultivated for 36 h in the presence or absence of fetal bovine serum (10%). […]
Macroscopic Ice, was recorded at room temperature (˜22° C.) using the whole-cell patch clamp technique in native cells as previously described (Aimond et al., 2005; Maier et al., 2003). […]

[4] = Cavα1 and Cavβ2 cotransfected cells, 1 μM bafilomycin-A1, 25 μM MG132 or 25 μM calpeptin, 6 h

Compound: CC(C)C[C@@H](C=O)NC(=O)[C@H](CC(C)C)NC(=O)[C@H](CC(C)C)NC(=O)OCc1ccccc1 [MG132] (Cbz-Leu-Leu-Leu-aldehyde)
Cavα1 protein decrease induced by Akt inhibition [1, 4]: failed to protect Cavα1 from protein degradation

Compound: CO/C1=C\C(C)=C\[C@@H](C)[C@@H](O)[C@@H](C)C/C(C)=C/C=C/[C@H](OC)[C@@H]([C@@H](C)[C@@H](O)[C@H](C)[C@@]2(O)C[C@@H](O)[C@H](C)[C@@H](C(C)C)O2)OC1=O [bafilomycin-A1]
Cavα1 protein decrease induced by Akt inhibition [1, 4]: prevented the decrease in Cavα1 protein induced by Akt inhibition | Cavα1 protein decrease induced by Akt inhibition ([1]; absence of Cavβ2 cotransfection): protection effect was abolished

Interaction with Cavα1 C-terminal domain [2]: direct interaction took place | Interaction with Cavα1 C-terminal domain ([2]; listed as Akt-phosphorylated GST-C-Cavβ2): Binding occurred | Interaction with other Cavα1 cytosolic domains ([2]; data not shown): No interactions were found
Compound: Akt-phosphorylated Cavβ2 C-terminal coiled coil region: bacterially expressed GST-C-Cavβ2 (Cavβ2: aa 480-655) fusion protein phosphorylated by recombinant Akt

Compound: Cavβ2-WT: wild-type Ca2+ beta2 channel accessory subunit
ICa,L in serum-free medium compared to serum-containing medium [3]: significant depressed ICa,L
